Each compound was assayed on soybean (Glycine max) (assay: Test Example 2 upland soil treatment, crop phytotoxicity). Conditions: Table 5, upland soil treatment, index 0-5.
Type: in vivo
How it was run: (§1)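 Visual 0–5 grading of herbicidal effect or phytotoxicity, made 21 days after a single pre-emergence soil-surface application at 1 kg a.i./ha.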

Row | SMILES | Herbicidal activity (phytotoxicity) GM: Soybean (Glycine max)
1 | CNC(=O)C(Cn1cc(C)c(-c2cc(F)c(OC)c(F)c2)n1)=NOC [Compound 92] | 0 (herbicidal effect of not less than 0% and less than 10%, or phytotoxicity of 0% or more and less than 10%)
2 | CCc1cn(CC(=NOC)C(=O)NC)nc1-c1ccccc1 [Compound 98] | 0 (herbicidal effect of not less than 0% and less than 10%, or phytotoxicity of 0% or more and less than 10%)

The compounds below were run on wheat (Triticum aestivum) in the same assay as above. Conditions: Table 5, upland soil treatment, index 0-5.
Type: in vivo
How it was run: as §1

Row | SMILES | Herbicidal activity (phytotoxicity) TA: Wheat (Triticum aestivum)
3 | CNC(=O)C(Cn1cc(C)c(-c2cc(F)c(OC)c(F)c2)n1)=NOC [Compound 92] | 0 (herbicidal effect of not less than 0% and less than 10%, or phytotoxicity of 0% or more and less than 10%)
4 | CCc1cn(CC(=NOC)C(=O)NC)nc1-c1ccccc1 [Compound 98] | 0 (herbicidal effect of not less than 0% and less than 10%, or phytotoxicity of 0% or more and less than 10%)

What follows are compounds tested on Echinochloa crusgalli (assay: Test Example 3 paddy field treatment). Conditions: Table 6, paddy field treatment, active ingredient 1 kg per hectare, 21st day after dropping, index 0-5.
Type: in vivo
How it was run: (§2)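 Weed seeds sown in puddled paddy soil under 4 cm water, with two-leaf Koshihikari rice transplanted; 10 days later a wettable powder was applied to the water surface at 1 kg active ingredient/ha. Scored 21 days after application on a 0–5 scale (0 = <10%, 5 = ≥90% herbicidal effect or phytotoxicity).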

Row | SMILES | Herbicidal activity EC
5 | CNC(=O)C(Cn1cc(C)c(-c2cc(F)c(OC)c(F)c2)n1)=NOC [Compound 92] | 5 (herbicidal effect of not less than 90%, or phytotoxicity of 90% or more)
6 | CCc1cn(CC(=NOC)C(=O)NC)nc1-c1ccccc1 [Compound 98] | 5 (herbicidal effect of not less than 90%, or phytotoxicity of 90% or more)

These compounds were tested on Monochoria vaginalis (assay: Test Example 3 paddy field treatment). Conditions: Table 6, paddy field treatment, active ingredient 1 kg per hectare, 21st day after dropping, index 0-5.
Type: in vivo
How it was run: as §2

Row | SMILES | Herbicidal activity MV
7 | CNC(=O)C(Cn1cc(C)c(-c2cc(F)c(OC)c(F)c2)n1)=NOC [Compound 92] | 5 (herbicidal effect of not less than 90%, or phytotoxicity of 90% or more)
8 | CCc1cn(CC(=NOC)C(=O)NC)nc1-c1ccccc1 [Compound 98] | 5 (herbicidal effect of not less than 90%, or phytotoxicity of 90% or more)

The compounds below were run on Ammannia multiflora (assay: Test Example 3 paddy field treatment). Conditions: Table 6, paddy field treatment, active ingredient 1 kg per hectare, 21st day after dropping, index 0-5.
Type: in vivo
How it was run: as §2

Row | SMILES | Herbicidal activity AM
9 | CNC(=O)C(Cn1cc(C)c(-c2cc(F)c(OC)c(F)c2)n1)=NOC [Compound 92] | 5 (herbicidal effect of not less than 90%, or phytotoxicity of 90% or more)
10 | CCc1cn(CC(=NOC)C(=O)NC)nc1-c1ccccc1 [Compound 98] | 4 (herbicidal effect of not less than 70% and less than 90%, or phytotoxicity of 70% or more and less than 90%)

What follows are compounds tested on Scirpus juncoides (assay: Test Example 3 paddy field treatment). Conditions: Table 6, paddy field treatment, active ingredient 1 kg per hectare, 21st day after dropping, index 0-5.
Type: in vivo
How it was run: as §2

Row | SMILES | Herbicidal activity SJ
11 | CNC(=O)C(Cn1cc(C)c(-c2cc(F)c(OC)c(F)c2)n1)=NOC [Compound 92] | 5 (herbicidal effect of not less than 90%, or phytotoxicity of 90% or more)
12 | CCc1cn(CC(=NOC)C(=O)NC)nc1-c1ccccc1 [Compound 98] | 4 (herbicidal effect of not less than 70% and less than 90%, or phytotoxicity of 70% or more and less than 90%)

Each compound was assayed on soybean (Glycine max) (assay: Test Example 1 upland field foliage treatment, crop phytotoxicity). Conditions: Table 4, upland field foliage treatment, index 0-5.
Type: in vivo
How it was run: (§3)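 Scores are visual 0–5 ratings of herbicidal effect or crop injury (0: under 10%; 5: 90% or more) taken 21 days after treatment. Plants grew from seed in upland soil for 14 days, then foliage received the compound as a water-diluted wettable powder at 1 kg/ha active ingredient.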

Row | SMILES | Herbicidal activity (phytotoxicity) GM: Soybean (Glycine max)
13 | CNC(=O)C(Cn1cc(C)c(-c2cc(F)c(OC)c(F)c2)n1)=NOC [Compound 92] | 0 (herbicidal effect of not less than 0% and less than 10%, or phytotoxicity of 0% or more and less than 10%)
14 | CCc1cn(CC(=NOC)C(=O)NC)nc1-c1ccccc1 [Compound 98] | 0 (herbicidal effect of not less than 0% and less than 10%, or phytotoxicity of 0% or more and less than 10%)

What follows are compounds tested on wheat (Triticum aestivum) in the same assay as above. Conditions: Table 4, upland field foliage treatment, index 0-5.
Type: in vivo
How it was run: as §3

Row | SMILES | Herbicidal activity (phytotoxicity) TA: Wheat (Triticum aestivum)
15 | CNC(=O)C(Cn1cc(C)c(-c2cc(F)c(OC)c(F)c2)n1)=NOC [Compound 92] | 0 (herbicidal effect of not less than 0% and less than 10%, or phytotoxicity of 0% or more and less than 10%)
16 | CCc1cn(CC(=NOC)C(=O)NC)nc1-c1ccccc1 [Compound 98] | 0 (herbicidal effect of not less than 0% and less than 10%, or phytotoxicity of 0% or more and less than 10%)

These compounds were tested on Stellaria media (assay: Test Example 1 upland field foliage treatment). Conditions: Table 4, upland field foliage treatment, index 0-5.
Type: in vivo
How it was run: as §3

Row | SMILES | Herbicidal activity SM: Stellaria media
17 | CNC(=O)C(Cn1cc(C)c(-c2cc(F)c(OC)c(F)c2)n1)=NOC [Compound 92] | 5 (herbicidal effect of not less than 90%, or phytotoxicity of 90% or more)
18 | CCc1cn(CC(=NOC)C(=O)NC)nc1-c1ccccc1 [Compound 98] | 4 (herbicidal effect of not less than 70% and less than 90%, or phytotoxicity of 70% or more and less than 90%)

The compounds below were run on Chenopodium album (assay: Test Example 1 upland field foliage treatment). Conditions: Table 4, upland field foliage treatment, index 0-5.
Type: in vivo
How it was run: as §3

Row | SMILES | Herbicidal activity CA: Chenopodium album
19 | CNC(=O)C(Cn1cc(C)c(-c2cc(F)c(OC)c(F)c2)n1)=NOC [Compound 92] | 5 (herbicidal effect of not less than 90%, or phytotoxicity of 90% or more)
20 | CCc1cn(CC(=NOC)C(=O)NC)nc1-c1ccccc1 [Compound 98] | 4 (herbicidal effect of not less than 70% and less than 90%, or phytotoxicity of 70% or more and less than 90%)

Each compound was assayed on Digitaria adscendens (assay: Test Example 1 upland field foliage treatment). Conditions: Table 4, upland field foliage treatment, index 0-5.
Type: in vivo
How it was run: as §3

Row | SMILES | Herbicidal activity DA: Digitaria adscendens
21 | CNC(=O)C(Cn1cc(C)c(-c2cc(F)c(OC)c(F)c2)n1)=NOC [Compound 92] | 5 (herbicidal effect of not less than 90%, or phytotoxicity of 90% or more)
22 | CCc1cn(CC(=NOC)C(=O)NC)nc1-c1ccccc1 [Compound 98] | 4 (herbicidal effect of not less than 70% and less than 90%, or phytotoxicity of 70% or more and less than 90%)

The compounds below were run on Setaria viridis (assay: Test Example 1 upland field foliage treatment). Conditions: Table 4, upland field foliage treatment, index 0-5.
Type: in vivo
How it was run: as §3

Row | SMILES | Herbicidal activity SV: Setaria viridis
23 | CNC(=O)C(Cn1cc(C)c(-c2cc(F)c(OC)c(F)c2)n1)=NOC [Compound 92] | 5 (herbicidal effect of not less than 90%, or phytotoxicity of 90% or more)
24 | CCc1cn(CC(=NOC)C(=O)NC)nc1-c1ccccc1 [Compound 98] | 3 (herbicidal effect of not less than 50% and less than 70%, or phytotoxicity of 50% or more and less than 70%)

What follows are compounds tested on Stellaria media (assay: Test Example 2 upland soil treatment). Conditions: Table 5, upland soil treatment, index 0-5.
Type: in vivo
How it was run: as §1

Row | SMILES | Herbicidal activity SM: Stellaria media
25 | CNC(=O)C(Cn1cc(C)c(-c2cc(F)c(OC)c(F)c2)n1)=NOC [Compound 92] | 5 (herbicidal effect of not less than 90%, or phytotoxicity of 90% or more)
26 | CCc1cn(CC(=NOC)C(=O)NC)nc1-c1ccccc1 [Compound 98] | 5 (herbicidal effect of not less than 90%, or phytotoxicity of 90% or more)

What follows are compounds tested on Chenopodium album (assay: Test Example 2 upland soil treatment). Conditions: Table 5, upland soil treatment, index 0-5.
Type: in vivo
How it was run: as §1

Row | SMILES | Herbicidal activity CA: Chenopodium album
27 | CNC(=O)C(Cn1cc(C)c(-c2cc(F)c(OC)c(F)c2)n1)=NOC [Compound 92] | 5 (herbicidal effect of not less than 90%, or phytotoxicity of 90% or more)
28 | CCc1cn(CC(=NOC)C(=O)NC)nc1-c1ccccc1 [Compound 98] | 4 (herbicidal effect of not less than 70% and less than 90%, or phytotoxicity of 70% or more and less than 90%)

These compounds were tested on Digitaria adscendens (assay: Test Example 2 upland soil treatment). Conditions: Table 5, upland soil treatment, index 0-5.
Type: in vivo
How it was run: as §1

Row | SMILES | Herbicidal activity DA: Digitaria adscendens
29 | CNC(=O)C(Cn1cc(C)c(-c2cc(F)c(OC)c(F)c2)n1)=NOC [Compound 92] | 5 (herbicidal effect of not less than 90%, or phytotoxicity of 90% or more)
30 | CCc1cn(CC(=NOC)C(=O)NC)nc1-c1ccccc1 [Compound 98] | 4 (herbicidal effect of not less than 70% and less than 90%, or phytotoxicity of 70% or more and less than 90%)

Each compound was assayed on Setaria viridis (assay: Test Example 2 upland soil treatment). Conditions: Table 5, upland soil treatment, index 0-5.
Type: in vivo
How it was run: as §1

Row | SMILES | Herbicidal activity SV: Setaria viridis
31 | CNC(=O)C(Cn1cc(C)c(-c2cc(F)c(OC)c(F)c2)n1)=NOC [Compound 92] | 5 (herbicidal effect of not less than 90%, or phytotoxicity of 90% or more)
32 | CCc1cn(CC(=NOC)C(=O)NC)nc1-c1ccccc1 [Compound 98] | 3 (herbicidal effect of not less than 50% and less than 70%, or phytotoxicity of 50% or more and less than 70%)

The compounds below were run on Rice (Oryza sativa) (assay: Test Example 3 paddy field treatment, crop phytotoxicity). Conditions: Table 6, paddy field treatment, transplanted rice, active ingredient 1 kg per hectare, 21st day after dropping, index 0-5.
Type: in vivo
How it was run: as §2

Row | SMILES | Herbicidal activity (phytotoxicity) OS
33 | CNC(=O)C(Cn1cc(C)c(-c2cc(F)c(OC)c(F)c2)n1)=NOC [Compound 92] | 0 (herbicidal effect of not less than 0% and less than 10%, or phytotoxicity of 0% or more and less than 10%)
34 | CCc1cn(CC(=NOC)C(=O)NC)nc1-c1ccccc1 [Compound 98] | 0 (herbicidal effect of not less than 0% and less than 10%, or phytotoxicity of 0% or more and less than 10%)
